Drawing on PMC8199213, “Pharmacophore-Based Virtual Screening of Novel Competitive Inhibitors of the Neurodegenerative Disease Target Kynurenine-3-Monooxygenase” (Molecules, 2021), this text covers IC50 for two compounds.

The structures appear in SMILES notation.

The target of assay [1] is T1, human kynurenine-3-monooxygenase (hKMO) (Homo sapiens, UniProt O15229).
T1 construct: gene KMO; purified KMO protein with C-terminal His-FLAG-tag
Nature of the assay: KMO NADPH-consumption assay (BPS Bioscience KMO Screening Kit), dose-response; positive control. Format: biochemical.

Assay [2] addresses T1, human kynurenine-3-monooxygenase (hKMO). The assay can be described thus: KMO NADPH-consumption assay; […] inhibition at […], […] at […]. Format: biochemical.

T1 sequence (O15229 whole entry): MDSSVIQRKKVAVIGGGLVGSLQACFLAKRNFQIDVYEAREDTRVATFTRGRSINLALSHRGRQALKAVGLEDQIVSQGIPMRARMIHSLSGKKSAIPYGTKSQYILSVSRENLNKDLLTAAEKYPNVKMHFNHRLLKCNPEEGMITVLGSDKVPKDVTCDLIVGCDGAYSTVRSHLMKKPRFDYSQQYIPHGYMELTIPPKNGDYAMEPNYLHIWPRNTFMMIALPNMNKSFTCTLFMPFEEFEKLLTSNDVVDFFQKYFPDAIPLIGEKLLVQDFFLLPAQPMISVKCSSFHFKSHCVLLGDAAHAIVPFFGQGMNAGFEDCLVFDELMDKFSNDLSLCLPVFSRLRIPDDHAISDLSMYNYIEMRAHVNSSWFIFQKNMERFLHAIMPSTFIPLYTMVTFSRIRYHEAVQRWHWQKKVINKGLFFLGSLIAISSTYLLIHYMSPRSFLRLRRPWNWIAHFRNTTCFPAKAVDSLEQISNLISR

Consider `COc1ccc(S(=O)(=O)Nc2nc(-c3cccc([N+](=O)[O-])c3)cs2)cc1OC` [Ro 61-8084], for which, in assay [1], 727 ± 88 nM corresponded to half-maximal inhibition (IC50).
Regarding `Cc1cc2nc(CCC(=O)O)c(=O)[nH]c2cc1C` [VS6, F6548-0495], the IC50 in assay [2] is less than 10000 nM.

A word on the IC50: it is the midpoint of a concentration-inhibition curve. Read a high IC50 as weaker potency in that assay.
